Data: US10231463B2, “Food mass suitable for microwaving” (Chemische Fabrik Budenheim KG, priority 2013, dated 2019)

What was measured:
[1] = Pore volume by nitrogen gas adsorption (BJH method, BELSORP-mini II); format: physicochemical; settings: total pore volume Vp, nitrogen adsorption at 77.3 K
From the text: Determining the Pore Volume
The pore volume in accordance with the present invention is characterised by means of gas adsorption. The recording of physisorption isotherms (adsorption and desorption isotherms) of inert gas molecules at low temperatures is routinely used for determining solids parameters.
The BJH method provides an algorithm for the calculation of pore width distribution from nitrogen adsorption data on the assumption of a cylindrical pore geometry. In that respect consideration is given to the change in the adsorbed volume in the pores in dependence on the pore radius, wherein the pore radius distribution function is related as a relative value to the total pore volume. […] It is assumed that the entire pore system is filled with a capillary condensate.

[2] = Thawing and baking trials with yeast-raised wheat frozen doughs in a microwave oven; settings: yeast-raised wheat frozen dough; for ΔT (temperature difference between crust temperature and crumb temperature): 2 parts by weight additive, 600 watts, 120 seconds; for Microwave activity: assessment scale from ΔT
Description: Dough Composition (Basic Recipe):
In addition 2 parts by weight of microwave absorber were added to the basic recipe.
• Mixing and kneading time: 3+2 minutes (the latter in a Stephan mixer) • Dough standing time: 20 minutes • Dough piece weight: 200 g • Cooking time of the dough pieces: 20 minutes • Freezing time: about 4 hours • Deep freeze storage time: about 2 days Thawing and Baking Trials:
The deep-frozen dough pieces were exposed to microwave radiation in a microwave oven from Panasonic (model: NN-GD560M—inverter microwave) for a predetermined period of 120 seconds and with a predetermined microwave power of 600 watts (according to the device indication). After 2 minutes of standing time the temperature of the crust and the crumb was measured by means of an infrared temperature sensor at various measurement points on the dough piece.
Measurement value 1 (M1)=average crust temperature outside
Measurement value 2 (M2)=average crumb temperature in the interior of the dough piece.

Compound | Pore Volume [1] | ΔT (temperature difference between crust temperature and crumb temperature) [2] | Microwave activity [2]
O=C([O-])[O-].[Ca+2] [CaCO3, Calcium carbonate] | 9.0 10^−3 cm^3/g | 31.5 °C | 2 (ΔT=25 to 40° C.=good)
O=P([O-])([O-])OP(=O)([O-])[O-].[Cu+2].[Cu+2] [CuPP, Copper-II pyrophosphate] | 12 10^−3 cm^3/g | 37.9 °C | 2 (ΔT=25 to 40° C.=good)
O.O.O=P([O-])([O-])O.[Ca+2] [DCPD, Dicalcium phosphate dihydrate] | 5.3 10^−3 cm^3/g | 26.2 °C | 2 (ΔT=25 to 40° C.=good)
O.O.O.O=P([O-])([O-])O.[Mg+2] [DMP, Dimagnesium phosphate trihydrate] | 6.0 10^−3 cm^3/g | 41.9 °C | 1 (ΔT=>40° C.=very good)
O=P([O-])(O)O.O=P([O-])(O)O.[Ca+2] [MCPA(V), Monocalcium phosphate anhydrate, reference compound] | 2.3 10^−3 cm^3/g | 17.0 °C | 3 (ΔT=<25° C.=no additional activity)
O.O=P([O-])(O)O.O=P([O-])(O)O.[Ca+2] [MCPM, Monocalcium phosphate monohydrate] | 23 10^−3 cm^3/g | 32.5 °C | 2 (ΔT=25 to 40° C.=good)
O=P([O-])(O)O.O=P([O-])(O)O.[Mg+2] [MSPA, Monomagnesium phosphate anhydrate] | 4.5 10^−3 cm^3/g | 41.1 °C | 1 (ΔT=>40° C.=very good)
[Mg+2].[OH-].[OH-] [Mg(OH)2, Magnesium hydroxide] | 18.2 10^−3 cm^3/g | 62.5 °C | 1 (ΔT=>40° C.=very good)
[Cl-].[Cl-].[Mg+2] [MgCl2(V), Magnesium chloride, reference compound] | 2.0 10^−3 cm^3/g | 19.8 °C | 3 (ΔT=<25° C.=no additional activity)
O=S(=O)([O-])[O-].O=S(=O)([O-])[O-].[Al+3].[Na+] [SAS, Acid sodium aluminium sulphate] | 3.9 10^−3 cm^3/g | 39.6 °C | 2 (ΔT=25 to 40° C.=good)
O=C([O-])CC(O)(CC(=O)[O-])C(=O)[O-].O=C([O-])CC(O)(CC(=O)[O-])C(=O)[O-].[Ca+2].[Ca+2].[Ca+2] [TCC, Tricalcium citrate] | 14.2 10^−3 cm^3/g | 28.6 °C | 2 (ΔT=25 to 40° C.=good)
O=P([O-])([O-])[O-].O=P([O-])([O-])[O-].[Ca+2].[Ca+2].[Ca+2] [TCP, Tricalcium phosphate] | 120 10^−3 cm^3/g | 36.2 °C | 2 (ΔT=25 to 40° C.=good)
O.O.O.O.O=P([O-])([O-])[O-].O=P([O-])([O-])[O-].[Mg+2].[Mg+2].[Mg+2] [TMP, Trimagnesium phosphate tetrahydrate] | 16 10^−3 cm^3/g | 41.0 °C | 1 (ΔT=>40° C.=very good)
O=P([O-])([O-])OP(=O)([O-])[O-].[Na+].[Na+].[Na+].[Na+] [TSPP, Tetrasodium pyrophosphate] | 3.3 10^−3 cm^3/g | 40.8 °C | 1 (ΔT=>40° C.=very good)
O.O.O=P([O-])([O-])[O-].O=P([O-])([O-])[O-].[Zn+2].[Zn+2].[Zn+2] [TZP, Trizinc phosphate dihydrate] | 6.3 10^−3 cm^3/g | 38.0 °C | 2 (ΔT=25 to 40° C.=good)
